Assay results from patent US20100267561A1, “HERBICIDAL PYRIDAZINONE DERIVATIVES” (priority 2007, published 2010).

Assays:
Experiment in all cases: Test B pre-/postemergence plant response
Format in all cases: in vivo
wild oat (Avena fatua) = system: wild oat (Avena fatua)
Excerpt: (§1) Seeds of plant species selected from blackgrass (Alopecurus myosuroides), downy bromegrass (Bromus tectorum), green foxtail (Setaria viridis), Italian ryegrass (Lolium multiflorum), wheat (Triticum aestivum), wild oat (Avena fatua), catchweed bedstraw (Galium aparine), bermudagrass (Cynodon dactylon), surinam grass (Brachiaria decumbens), cocklebur (Xanthium strumarium), corn (Zea mays), large crabgrass (Digitaria sanguinalis), woolly cupgrass (Eriochloa villosa), giant foxtail (Setaria faberii), goosegrass (Eleusine indica), johnsongrass (Sorghum halepense), kochia (Kochia scoparia), lambsquarters (Chenopodium album), morningglory (Ipomoea coccinea), eastern black (E.B.) nightshade (Solanum ptycanthum), yellow nutsedge (Cyperus esculentus), pigweed (Amaranthus retroflexus), common ragweed (Ambrosia elation), Russian thistle (Salsola iberica), soybean (Glycine max), common (oilseed) sunflower (Helianthus annuus), and velvetleaf (Abutilon theophrasti) were planted and treated preemergence with test chemicals formulated in a non-phytotoxic solvent mixture which included a surfactant.
(§2) At the same time, plants selected from these crop and weed species and also winter barley (Hordeum vulgare), canarygrass (Phalaris minor), chickweed (Stellaria media) and windgrass (Apera spica-venti) were treated with postemergence applications of some of the test chemicals formulated in the same manner. Plants ranged in height from 2 to 18 cm (1- to 4-leaf stage) for postemergence treatments.
(§3) Plant species in the flooded paddy test consisted of rice (Oryza sativa), umbrella sedge (Cyperus difformis), ducksalad (Heteranthera limosa) and barnyardgrass (Echinochloa crus-galli) grown to the 2-leaf stage for testing. At time of treatment, test pots were flooded to 3 cm above the soil surface, treated by application of test compounds directly to the paddy water, and then maintained at that water depth for the duration of the test. Treated plants and controls were maintained in a greenhouse for 13 to 15 days, after which time all species were compared to controls and visually evaluated. Plant response ratings, summarized in Table B, are based on a scale of 0 to 100 where 0 is no effect and 100 is complete control. A dash (-) response means no test result.

kochia (Kochia scoparia) = system: kochia (Kochia scoparia)
Excerpt: as §1, §2, §3

[1] = system: downy bromegrass (Bromus tectorum); conditions: for Bromegrass, Downy plant response rating: 8 g ai/ha
Excerpt: as §1, §2, §3

[2] = system: pigweed (Amaranthus retroflexus)
Excerpt: as §1, §2, §3

[3] = system: catchweed bedstraw (Galium aparine); conditions: Preemergence; 8 g ai/ha; scale 0 to 100
Excerpt: as §1, §2, §3

[4] = system: giant foxtail (Setaria faberii)
Excerpt: as §1, §2, §3

[5] = system: blackgrass (Alopecurus myosuroides); conditions: for Blackgrass plant response rating: 8 g ai/ha
Excerpt: as §1, §2, §3

[6] = system: common ragweed (Ambrosia elation)
Excerpt: as §1, §2, §3

[7] = system: lambsquarters (Chenopodium album)
Excerpt: as §1, §2, §3

[8] = system: woolly cupgrass (Eriochloa villosa)
Excerpt: as §1, §2, §3

[9] = system: velvetleaf (Abutilon theophrasti)
Excerpt: as §1, §2, §3

[10] = system: yellow nutsedge (Cyperus esculentus)
Excerpt: as §1, §2, §3

corn (Zea mays) = system: corn (Zea mays)
Excerpt: as §1, §2, §3

[11] = system: common (oilseed) sunflower (Helianthus annuus); conditions: Preemergence
Excerpt: as §1, §2, §3

[12] = 8 g ai/ha, postemergence, 0-100 scale
[13] = Postemergence, 16 g ai/ha, scale 0 to 100
[14] = Postemergence, 31 g ai/ha, scale 0 to 100
[15] = Postemergence, 62 g ai/ha, scale 0 to 100, 0 no effect, 100 complete control
[16] = Preemergence, 31 g ai/ha, scale 0 to 100 (0 no effect, 100 complete control)
[17] = Preemergence, 62 g ai/ha, scale 0 to 100
[18] = Preemergence, 8 g ai/ha, scale 0 to 100
[19] = Preemergence, 16 g ai/ha, scale 0 to 100
[20] = Preemergence, 31 g ai/ha, 0 to 100 scale, 0 no effect, 100 complete control
[21] = Preemergence, 16 g ai/ha, scale 0 to 100 (0 no effect, 100 complete control)

SMILES: CCOC(=O)Oc1cnn(C)c(=O)c1-n1nc(-c2ccc(Cl)cc2)cc1C [Compound 53]
- Oat, Wild plant response rating (wild oat (Avena fatua); [12]): 80
- Plant response rating, Oat, Wild (wild oat (Avena fatua); [13]): 90
- Plant response rating, Oat, Wild (wild oat (Avena fatua); [14]): 95
- Plant response rating, Oat, Wild (wild oat (Avena fatua); [15]): 98
- Plant response rating, Oat, Wild (wild oat (Avena fatua); [16]): 80
- Plant response rating, Oat, Wild (wild oat (Avena fatua); [17]): 85
- Oat, Wild plant response rating (wild oat (Avena fatua); [18]): 40
- Oat, Wild plant response rating (wild oat (Avena fatua); [19]): 65
- Kochia plant response rating (kochia (Kochia scoparia); [12]): 0
- Plant response rating, Kochia (kochia (Kochia scoparia); [13]): 0
- Plant response rating, Kochia (kochia (Kochia scoparia); [14]): 0
- Plant response rating, Kochia (kochia (Kochia scoparia); [15]): 0
- Plant response rating, Kochia (kochia (Kochia scoparia); [20]): 0
- Bromegrass, Downy plant response rating ([1]; postemergence, 0-100 scale): 10
- Plant response rating, Bromegrass, Downy [1, 13]: 45
- Plant response rating, Bromegrass, Downy [1, 14]: 60
- Plant response rating, Bromegrass, Downy [1, 15]: 90
- Plant response rating, Bromegrass, Downy [1, 21]: 50
- Plant response rating, Bromegrass, Downy [1, 20]: 70
- Plant response rating, Bromegrass, Downy [1, 17]: 90
- Bromegrass, Downy plant response rating ([1]; Preemergence, scale 0 to 100): 10
- Pigweed plant response rating [2, 12]: 0
- Plant response rating, Pigweed [2, 13]: 0
- Plant response rating, Pigweed [2, 14]: 0
- Plant response rating, Pigweed [2, 15]: 0
- Plant response rating, Pigweed [2, 16]: 0
- Plant response rating, Pigweed [2, 17]: 0
- Pigweed plant response rating [2, 18]: 0
- Pigweed plant response rating [2, 19]: 0
- Galium plant response rating [3]: 0
- Foxtail, Giant plant response rating [4, 12]: 85
- Plant response rating, Foxtail, Giant [4, 13]: 95
- Plant response rating, Foxtail, Giant [4, 14]: 100
- Plant response rating, Foxtail, Giant [4, 15]: 100
- Plant response rating, Foxtail, Giant [4, 20]: 45
- Plant response rating, Foxtail, Giant [4, 17]: 70
- Foxtail, Giant plant response rating [4, 18]: 0
- Foxtail, Giant plant response rating [4, 19]: 20
- Blackgrass plant response rating ([5]; postemergence, 0-100 scale): 30
- Plant response rating, Blackgrass [5, 13]: 60
- Plant response rating, Blackgrass [5, 14]: 95
- Plant response rating, Blackgrass [5, 15]: 95
- Plant response rating, Blackgrass [5, 21]: 100
- Plant response rating, Blackgrass [5, 20]: 100
- Plant response rating, Blackgrass [5, 17]: 100
- Blackgrass plant response rating ([5]; Preemergence, scale 0 to 100): 95
- Ragweed plant response rating [6, 12]: 0
- Plant response rating, Ragweed [6, 13]: 0
- Plant response rating, Ragweed [6, 14]: 0
- Plant response rating, Ragweed [6, 15]: 0
- Plant response rating, Ragweed [6, 16]: 0
- Plant response rating, Ragweed [6, 17]: 0
- Ragweed plant response rating [6, 18]: 0
- Ragweed plant response rating [6, 19]: 0
- Lambsquarters plant response rating [7, 12]: 0
- Plant response rating, Lambsquarters [7, 13]: 0
- Plant response rating, Lambsquarters [7, 14]: 0
- Plant response rating, Lambsquarters [7, 15]: 0
- Plant response rating, Lambsquarters [7, 20]: 0
- Plant response rating, Lambsquarters [7, 17]: 35
- Lambsquarters plant response rating [7, 18]: 0
- Lambsquarters plant response rating [7, 19]: 0
- Cupgrass, Woolly plant response rating [8, 12]: 85
- Plant response rating, Cupgrass, Woolly [8, 13]: 100
- Plant response rating, Cupgrass, Woolly [8, 14]: 100
- Plant response rating, Cupgrass, Woolly [8, 15]: 100
- Plant response rating, Cupgrass, Woolly [8, 20]: 0
- Plant response rating, Cupgrass, Woolly [8, 17]: 0
- Cupgrass, Woolly plant response rating [8, 18]: 0
- Cupgrass, Woolly plant response rating [8, 19]: 0
- Velvetleaf plant response rating [9, 12]: 0
- Plant response rating, Velvetleaf [9, 13]: 0
- Plant response rating, Velvetleaf [9, 14]: 0
- Plant response rating, Velvetleaf [9, 15]: 0
- Plant response rating, Velvetleaf [9, 16]: 0
- Plant response rating, Velvetleaf ([9]; Preemergence, 62 g ai/ha, 0 to 100 scale, 0 no effect, 100 complete control): 0
- Velvetleaf plant response rating [9, 18]: 0
- Velvetleaf plant response rating [9, 19]: 0
- Nutsedge, Yellow plant response rating [10, 12]: 0
- Plant response rating, Nutsedge, Yellow [10, 13]: 0
- Plant response rating, Nutsedge, Yellow [10, 14]: 0
- Plant response rating, Nutsedge, Yellow [10, 15]: 0
- Plant response rating, Nutsedge, Yellow [10, 16]: 0
- Plant response rating, Nutsedge, Yellow [10, 17]: 0
- Nutsedge, Yellow plant response rating [10, 18]: 0
- Nutsedge, Yellow plant response rating [10, 19]: 0
- Corn plant response rating (corn (Zea mays); [12]): 20
- Plant response rating, Corn (corn (Zea mays); [13]): 100
- Plant response rating, Corn (corn (Zea mays); [14]): 100
- Plant response rating, Corn (corn (Zea mays); [15]): 100
- Plant response rating, Corn (corn (Zea mays); [20]): 55
- Plant response rating, Corn (corn (Zea mays); [17]): 60
- Corn plant response rating (corn (Zea mays); [18]): 0
- Corn plant response rating (corn (Zea mays); [19]): 45
- Plant response rating, Sunflower ([11]; 31 g ai/ha, scale 0 to 100 (0 no effect, 100 complete control)): 0
- Plant response rating, Sunflower ([11]; 62 g ai/ha, scale 0 to 100): 0
- Sunflower plant response rating ([11]; 8 g ai/ha, scale 0 to 100): 0
- Sunflower plant response rating ([11]; 16 g ai/ha, scale 0 to 100): 0
